{"source": "patent US11573281B2", "about": "“Magnetic resonance fingerprinting method for recordings with a contrast agent” (Bayer Aktiengesellschaft, priority 2018, dated 2023)", "key": {"[1]": {"assay": "molar relaxivity of Gd-EOB-DTPA in bile", "assay_type": "physicochemical"}, "[2]": {"assay": "molar relaxivity of Gd-EOB-DTPA in urine", "assay_type": "physicochemical"}, "[3]": {"assay": "molar relaxivity of Gd-EOB-DTPA in plasma", "assay_type": "physicochemical", "settings": "plasma vs bile"}, "[4]": {"assay": "molar relaxivity of Gd-EOB-DTPA in blood", "assay_type": "physicochemical"}, "[5]": {"assay": "molar relaxivity of Gd-EOB-DTPA in liver tissue", "assay_type": "physicochemical", "settings": "for molar relaxivity: Liver tissue"}, "[6]": {"settings": "Water, Rohrer et al., cited from earlier work"}, "[7]": {"settings": "Plasma, Rohrer et al., cited from earlier work"}, "[8]": {"settings": "Blood, cited from earlier work"}, "[9]": {"settings": "Liver tissue, 0.47 T; Schuhmann-Giampieri et al.; cited from earlier work"}}, "note": "Where two headings read alike, the source gives them in different places."}
{"smiles": "CCOc1ccc(CC(CN(CCN(CC(=O)[O-])CC(=O)[O-])CC(=O)[O-])N(CC(=O)[O-])CC(=O)[O-])cc1.[Gd+3].[Na+].[Na+]", "note": "(centres unmarked) [Gd-EOB-DTPA, gadolinium ethoxybenzyl diethylenetriaminepentaacetic acid]", "values": [{"measurement": "molar relaxivity", "setting": "[1]; 1.41 T", "result": "5.6 ± 0.3 (s·mmol/L)^−1"}, {"measurement": "molar relaxivity", "setting": "[1]; 1.5 T", "result": "5.6 ± 0.4 (s·mmol/L)^−1"}, {"measurement": "molar relaxivity", "setting": "[1]; 3 T", "result": "5.6 ± 0.3 (s·mmol/L)^−1"}, {"measurement": "molar relaxivity", "setting": "[2]; 1.41 T", "result": "5.5 ± 0.1 (s·mmol/L)^−1"}, {"measurement": "molar relaxivity", "setting": "[2]; 1.5 T", "result": "5.5 ± 0.2 (s·mmol/L)^−1"}, {"measurement": "molar relaxivity", "setting": "[2]; 3 T", "result": "5.6 ± 0.1 (s·mmol/L)^−1"}, {"measurement": "molar relaxivity in plasma compared with bile", "setting": "[3]", "result": "significantly higher"}, {"measurement": "molar relaxivity", "setting": "[4]; 1.41 T", "result": "8.1 ± 0.2 (s·mmol/L)^−1"}, {"measurement": "molar relaxivity", "setting": "[4]; 1.5 T", "result": "8.3 ± 0.3 (s·mmol/L)^−1"}, {"measurement": "molar relaxivity", "setting": "[4]; 3 T", "result": "7.2 ± 0.1 (s·mmol/L)^−1"}, {"measurement": "molar relaxivity", "setting": "[5]; 1.41 T", "result": "14.0 ± 2.8 (s·mmol/L)^−1"}, {"measurement": "molar relaxivity", "setting": "[5]; 1.5 T", "result": "16.4 ± 3.1 (s·mmol/L)^−1"}, {"measurement": "molar relaxivity", "setting": "[5]; 3 T", "result": "13.4 ± 4.0 (s·mmol/L)^−1"}, {"measurement": "molar relaxivity in liver cells (hepatocytes) compared with plasma", "setting": "[5]; liver cells (hepatocytes) vs plasma", "result": "significantly higher"}, {"measurement": "molar relaxivity", "setting": "[6]; 0.47 T", "result": "5.3^(1) (s·mmol/L)^−1"}, {"measurement": "molar relaxivity", "setting": "[6]; 1.5 T", "result": "4.7^(1) (s·mmol/L)^−1"}, {"measurement": "molar relaxivity", "setting": "[6]; 3 T", "result": "4.3^(1) (s·mmol/L)^−1"}, {"measurement": "molar relaxivity", "setting": "[7]; 0.47 T", "result": "8.7^(1) (s·mmol/L)^−1"}, {"measurement": "molar relaxivity", "setting": "[7]; 1.5 T", "result": "6.9^(1) (s·mmol/L)^−1"}, {"measurement": "molar relaxivity", "setting": "[7]; 3 T", "result": "6.2^(1) (s·mmol/L)^−1"}, {"measurement": "molar relaxivity", "setting": "[8]; 0.47 T, Schuhmann-Giampieri et al.", "result": "11.0^(2) (s·mmol/L)^−1"}, {"measurement": "molar relaxivity", "setting": "[8]; 1.5 T, Rohrer et al.", "result": "7.3 (s·mmol/L)^−1"}, {"measurement": "molar relaxivity", "setting": "[9]", "result": "16.6^(2) (s·mmol/L)^−1"}]}
